According to patent US20260042764A1, “COMPOSITIONS AND METHODS FOR INHIBITION OF KRAS” (TheRas, Inc., priority 2022, published 2026):
pIC50: −log10 of the molar value.

Columns and labels:
[1] = target: T1, Avi-KRAS G12R (1-169) GppNHp/RAF1 RBD-3xFLAG (52-151) (Homo sapiens, UniProt P01116, G12R); assay: Raf1-KRAS G12R-GppNHP disruption HTRF assay (Biological Example 1); format: binding
T1 construct: Avi-KRAS G12R (1-169)
Outline: (§1)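 Using HTRF, the loss of KRAS–effector RAF1 complex was quantified in 50 mM Tris pH 7.5 buffer with 100 mM NaCl and 0.1% BSA. The protein step and reagent step ran 1 h each at room temperature. Activity normalized with DMSO taken as 100%.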

SW620 cells (KRAS G12V) = assay: Cell-based pERK HTRF assay in SW620 cell (Biological Example 4); details: Homo sapiens, SW-620, SW620 (KRAS G12V) cells, pERK HTRF
Outline: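 In SW620 cells grown in RPMI with 10% FBS, a 4 h compound treatment (0.25% DMSO, 9-point curve from 1 μM) preceded lysis. Phospho-ERK levels were then read by time-resolved FRET at 615 nm emission.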

GP2d cells (KRAS G12D) = assay: Cell-based pERK HTRF assay in GP2d cell (Biological Example 2); details: GP2d, GP2d (KRAS G12D) cells, pERK HTRF
Outline: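 Phospho-ERK in lysed cells was detected by HTRF using Eu cryptate and d2 antibodies, read between 4 and 24 h at room temperature. Prior to lysis, KRAS G12D GP2d cells, seeded the day before in DMEM with 10% FBS, were exposed to compounds for 60 min. Compounds were tested as 9-point half-log curves from 1 μM or 100 nM top, with 0.25% DMSO.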

[2] = target: T2, Avi-KRAS WT (1-169) GppNHp/RAF1 RBD-3xFLAG (52-151) (Homo sapiens, UniProt P01116); assay: Raf1-KRAS WT-GppNHP disruption HTRF assay (Biological Example 1); format: binding
T2 construct: Avi-KRAS WT (1-169)
Outline: as §1

[3] = target: T3, Avi-KRAS G12V (1-169) GppNHp/RAF1 RBD-3xFLAG (52-151) (Homo sapiens, UniProt P01116, G12V); assay: Raf1-KRAS G12V-GppNHP disruption HTRF assay (Biological Example 1); format: binding
T3 construct: Avi-KRAS G12V (1-169)
Outline: as §1

[4] = target: T4, Avi-KRAS G12D (1-169) GppNHp/RAF1 RBD-3xFLAG (52-151) (Homo sapiens, UniProt P01116, G12D); assay: Raf1-KRAS G12D-GppNHP disruption HTRF assay (Biological Example 1); format: binding
T4 construct: Avi-KRAS G12D (1-169)
Outline: as §1

[5] = KRAS G12R, GppNHp-loaded, class symbols
[6] = KRAS WT, GppNHp-loaded, class symbols
[7] = KRAS G12V, GppNHp-loaded, class symbols
[8] = KRAS G12D, GppNHp-loaded, class symbols
[9] = KRAS G12R, GppNHp-loaded, Table 11
[10] = KRAS WT, GppNHp-loaded, Table 11
[11] = KRAS G12V, GppNHp-loaded, Table 11
[12] = KRAS G12D, GppNHp-loaded, Table 11

T2 sequence (P01116 1-169 isoform P01116-2): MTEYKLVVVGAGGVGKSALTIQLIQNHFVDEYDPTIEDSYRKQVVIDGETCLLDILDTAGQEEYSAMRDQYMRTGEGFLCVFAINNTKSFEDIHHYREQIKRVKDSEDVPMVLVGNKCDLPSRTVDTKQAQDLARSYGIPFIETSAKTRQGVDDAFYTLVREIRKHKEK
T4 sequence (P01116 1-169 isoform P01116-2 G12D): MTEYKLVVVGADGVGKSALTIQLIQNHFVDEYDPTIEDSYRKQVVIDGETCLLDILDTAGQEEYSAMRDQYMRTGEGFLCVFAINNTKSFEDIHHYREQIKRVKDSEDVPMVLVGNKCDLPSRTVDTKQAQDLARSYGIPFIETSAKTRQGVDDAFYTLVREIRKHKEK
T1 sequence (P01116 1-169 isoform P01116-2 G12R): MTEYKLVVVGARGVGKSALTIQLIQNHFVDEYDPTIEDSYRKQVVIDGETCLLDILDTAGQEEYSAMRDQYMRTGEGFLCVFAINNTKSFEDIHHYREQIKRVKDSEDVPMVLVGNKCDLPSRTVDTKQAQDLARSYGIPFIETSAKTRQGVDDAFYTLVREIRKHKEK
T3 sequence (P01116 1-169 isoform P01116-2 G12V): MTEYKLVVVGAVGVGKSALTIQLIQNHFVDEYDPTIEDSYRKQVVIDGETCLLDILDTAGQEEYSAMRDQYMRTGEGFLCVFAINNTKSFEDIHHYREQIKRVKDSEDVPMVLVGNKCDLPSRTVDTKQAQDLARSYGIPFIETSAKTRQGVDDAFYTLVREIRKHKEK

What does the source list for `CCN(c1nc(OC[C@@]23CCCN2C[C@H](F)C3)nc2c(F)c(-c3ccc(F)c4sc(N)c(C#N)c34)c(C(F)(F)F)cc12)[C@H]1CCN(C(=O)C2CC2(F)F)C1` (stereo partly drawn) [Compound 548]?
pIC50 ([1]; KRAS G12R-GppNHp/RAF1 RBD HTRF): > 7.00; pIC50 (SW620 cells (KRAS G12V)): > 7.00; pIC50 (GP2d cells (KRAS G12D)): > 7.00; pIC50 ([2]; KRAS WT-GppNHp/RAF1 RBD HTRF): > 7.00; pIC50 ([3]; KRAS G12V-GppNHp/RAF1 RBD HTRF): > 7.00; pIC50 ([4]; KRAS G12D-GppNHp/RAF1 RBD HTRF): > 7.00

With `CCN(c1nc(OC[C@@]23CCCN2C[C@H](F)C3)nc2c(F)c(-c3ccc(F)c4sc(N)c(C#N)c34)c(C(F)(F)F)cc12)[C@@H]1C[C@H](C)N(C(=O)C2CC2)C1` (atropisomer, axis not shown) [Compound 588] as the compound, how does the pIC50 [1, 5] read?
The pIC50 was 6.00 to 7.00.

And the pIC50 (SW620 cells (KRAS G12V); class symbols)?
The pIC50 was over 7.00.

What about the pIC50 (GP2d cells (KRAS G12D); class symbols) of the same compound?
The pIC50 was over 7.00.

And the pIC50 [2, 6]?
The pIC50 was 6.00 to 7.00.

And the pIC50 [3, 7]?
The pIC50 was 6.00 to 7.00.

What about the pIC50 [4, 8] of the same compound?
The pIC50 was 6.00 to 7.00.

Which results are given for `CC(C)C(=O)N1CC[C@@H](N(C)c2nc(OC[C@@]34CCCN3C[C@H](F)C4)nc3c(F)c(-c4ccc(F)c5sc(N)c(C#N)c45)c(C(F)(F)F)cc23)[C@H]1C` [Compound 261]?
pIC50 [1, 9]: 6.00 to 7.00; pIC50 (SW620 cells (KRAS G12V)): > 7.00; pIC50 (GP2d cells (KRAS G12D)): > 7.00; pIC50 [2, 10]: > 7.00; pIC50 [3, 11]: 6.00 to 7.00; pIC50 [4, 12]: 6.00 to 7.00

`N#Cc1c(N)sc2c(F)ccc(-c3c(C(F)(F)F)cc4c(N5CCO[C@@H]6C[C@@H]65)nc(OC[C@@]56CCCN5C[C@H](F)C6)nc4c3F)c12` [Compound 411] was tested. Which pIC50 ([1]; KRAS G12R-GppNHp/RAF1 RBD HTRF) did it give?
The pIC50 was 6.00 to 7.00.

And the pIC50 (SW620 cells (KRAS G12V))?
Its pIC50 is over 7.00.

And the pIC50 (GP2d cells (KRAS G12D))?
Its pIC50 is over 7.00.

What about the pIC50 ([2]; KRAS WT-GppNHp/RAF1 RBD HTRF) of the same compound?
Its pIC50 is 6.00 to 7.00.

And the pIC50 ([3]; KRAS G12V-GppNHp/RAF1 RBD HTRF)?
Its pIC50 is 6.00 to 7.00.

And the pIC50 ([4]; KRAS G12D-GppNHp/RAF1 RBD HTRF)?
Its pIC50 is 6.00 to 7.00.

What does the source list for `C[C@H]1CCN1c1nc(OC[C@@]23CCCN2C[C@H](F)C3)nc2c(F)c(-c3ccc(F)c4sc(N)c(C#N)c34)c(C(F)(F)F)cc12` [Compound 235]?
pIC50 [1, 9]: 6.00 to 7.00; pIC50 (SW620 cells (KRAS G12V)): > 7.00; pIC50 (GP2d cells (KRAS G12D)): > 7.00; pIC50 [2, 10]: 6.00 to 7.00; pIC50 [3, 11]: 6.00 to 7.00; pIC50 [4, 12]: 6.00 to 7.00

Which results are given for `CCN(CC)C(=O)c1nn2c(c1C)CN(c1nc(OCC34CCCN3CC(F)C4)nc3c(F)c(-c4ccc(F)c5sc(N)c(C#N)c45)c(C(F)(F)F)cc13)CC2` (stereo not drawn) [Compound 740]?
pIC50 [1, 5]: 6.00 to 7.00; pIC50 (SW620 cells (KRAS G12V); class symbols): > 7.00; pIC50 (GP2d cells (KRAS G12D); class symbols): > 7.00; pIC50 [2, 6]: 6.00 to 7.00; pIC50 [3, 7]: 6.00 to 7.00; pIC50 [4, 8]: 6.00 to 7.00

With `CCN(c1nc(OC[C@@]23CCCN2C[C@H](F)C3)nc2c(F)c(-c3ccc(F)c4sc(N)c(C#N)c34)c(C(F)(F)F)cc12)[C@@H]1CCN(C(=O)C2CC2)[C@@H]1C` [Compound 406] as the compound, how does the pIC50 ([1]; KRAS G12R-GppNHp/RAF1 RBD HTRF) read?
The pIC50 was 6.00 to 7.00.

And the pIC50 (SW620 cells (KRAS G12V))?
Its pIC50 is over 7.00.

And the pIC50 (GP2d cells (KRAS G12D))?
Its pIC50 is over 7.00.

And the pIC50 ([2]; KRAS WT-GppNHp/RAF1 RBD HTRF)?
Its pIC50 is 6.00 to 7.00.

What about the pIC50 ([3]; KRAS G12V-GppNHp/RAF1 RBD HTRF) of the same compound?
The pIC50 was 6.00 to 7.00.

And the pIC50 ([4]; KRAS G12D-GppNHp/RAF1 RBD HTRF)?
Its pIC50 is 6.00 to 7.00.

What does the source list for `CN(c1nc(OC[C@@]23CCCN2C[C@H](F)C3)nc2c(F)c(-c3ccc(F)c4sc(N)c(C#N)c34)c(C(F)(F)F)cc12)C1CCOCC1` [Compound 264]?
pIC50 [1, 9]: 6.00 to 7.00; pIC50 (SW620 cells (KRAS G12V)): 6.00 to 7.00; pIC50 (GP2d cells (KRAS G12D)): > 7.00; pIC50 [2, 10]: 6.00 to 7.00; pIC50 [3, 11]: 5.00 to 6.00; pIC50 [4, 12]: 6.00 to 7.00

How did the pIC50 [1, 5] turn out when `C/C=C\C(=O)N1CC[C@H](N(CC)c2nc(OC[C@@]34CCCN3C[C@H](F)C4)nc3c(F)c(-c4ccc(F)c5sc(N)c(C#N)c45)c(C(F)(F)F)cc23)C1` (atropisomer, axis not shown) [Compound 677] was run?
Its pIC50 is over 7.00.

And the pIC50 (SW620 cells (KRAS G12V); class symbols)?
Its pIC50 is over 7.00.

And the pIC50 (GP2d cells (KRAS G12D); class symbols)?
Its pIC50 is over 7.00.

And the pIC50 [2, 6]?
Its pIC50 is over 7.00.

And the pIC50 [3, 7]?
The pIC50 was over 7.00.

What about the pIC50 [4, 8] of the same compound?
The pIC50 was over 7.00.

What does the source list for `CC(=O)N1CCN(c2nc(OC[C@@]34CCCN3C[C@H](F)C4)nc3c(F)c(-c4ccc(F)c5sc(N)c(C#N)c45)c(C(F)(F)F)cc23)C2CC21` (stereo partly drawn) [Compound 358]?
pIC50 ([1]; KRAS G12R-GppNHp/RAF1 RBD HTRF): 5.00 to 6.00; pIC50 (SW620 cells (KRAS G12V)): > 7.00; pIC50 (GP2d cells (KRAS G12D)): > 7.00; pIC50 ([2]; KRAS WT-GppNHp/RAF1 RBD HTRF): 5.00 to 6.00; pIC50 ([3]; KRAS G12V-GppNHp/RAF1 RBD HTRF): 5.00 to 6.00; pIC50 ([4]; KRAS G12D-GppNHp/RAF1 RBD HTRF): 5.00 to 6.00

With `CC(=O)N1CCC2[C@H]1CCN2c1nc(OC[C@@]23CCCN2C[C@H](F)C3)nc2c(F)c(-c3ccc(F)c4sc(N)c(C#N)c34)c(C(F)(F)F)cc12` (stereo partly drawn) [Compound 307] as the compound, how does the pIC50 ([1]; KRAS G12R-GppNHp/RAF1 RBD HTRF) read?
Its pIC50 is 5.00 to 6.00.

And the pIC50 (SW620 cells (KRAS G12V))?
The pIC50 was over 7.00.

What about the pIC50 (GP2d cells (KRAS G12D)) of the same compound?
The pIC50 was over 7.00.

What about the pIC50 ([2]; KRAS WT-GppNHp/RAF1 RBD HTRF) of the same compound?
The pIC50 was 5.00 to 6.00.

And the pIC50 ([3]; KRAS G12V-GppNHp/RAF1 RBD HTRF)?
The pIC50 was 5.00 to 6.00.

What about the pIC50 ([4]; KRAS G12D-GppNHp/RAF1 RBD HTRF) of the same compound?
The pIC50 was 5.00 to 6.00.
